{
  "source": "paper PMC7118906",
  "about": "“Esculetin Inhibits Cancer Cell Glycolysis by Binding Tumor PGK2, GPD2, and GPI” (Frontiers in Pharmacology, 2020)",
  "type_in_all_cases": "binding",
  "key": {"[1]": {"molecular_target": "T1, phosphoglycerate kinase 2 (PGK2) (Homo sapiens, UniProt P07205)", "T1 sequence (P07205 2-417)": "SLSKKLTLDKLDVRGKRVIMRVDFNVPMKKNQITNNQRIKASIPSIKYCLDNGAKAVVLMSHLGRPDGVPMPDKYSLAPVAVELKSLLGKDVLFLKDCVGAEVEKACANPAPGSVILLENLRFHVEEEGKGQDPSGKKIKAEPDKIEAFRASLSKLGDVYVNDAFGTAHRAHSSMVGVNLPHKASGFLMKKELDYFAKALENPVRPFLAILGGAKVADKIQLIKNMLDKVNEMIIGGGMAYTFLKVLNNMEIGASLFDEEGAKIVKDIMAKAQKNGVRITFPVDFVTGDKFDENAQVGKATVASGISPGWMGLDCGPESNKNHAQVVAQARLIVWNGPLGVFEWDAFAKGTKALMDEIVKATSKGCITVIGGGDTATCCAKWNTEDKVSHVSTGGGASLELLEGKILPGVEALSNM", "assay": "microscale thermophoresis with labeled purchased protein (Abcam ab123166)"}, "[2]": {"molecular_target": "glucose-6-phosphate isomerase (GPI) (Homo sapiens, UniProt P06744)", "assay": "microscale thermophoresis with labeled purchased protein (Abcam ab208311)"}, "[3]": {"molecular_target": "T2, glycerol-3-phosphate dehydrogenase (GPD2) (Homo sapiens, UniProt P43304)", "T2 sequence (P43304 43-727)": "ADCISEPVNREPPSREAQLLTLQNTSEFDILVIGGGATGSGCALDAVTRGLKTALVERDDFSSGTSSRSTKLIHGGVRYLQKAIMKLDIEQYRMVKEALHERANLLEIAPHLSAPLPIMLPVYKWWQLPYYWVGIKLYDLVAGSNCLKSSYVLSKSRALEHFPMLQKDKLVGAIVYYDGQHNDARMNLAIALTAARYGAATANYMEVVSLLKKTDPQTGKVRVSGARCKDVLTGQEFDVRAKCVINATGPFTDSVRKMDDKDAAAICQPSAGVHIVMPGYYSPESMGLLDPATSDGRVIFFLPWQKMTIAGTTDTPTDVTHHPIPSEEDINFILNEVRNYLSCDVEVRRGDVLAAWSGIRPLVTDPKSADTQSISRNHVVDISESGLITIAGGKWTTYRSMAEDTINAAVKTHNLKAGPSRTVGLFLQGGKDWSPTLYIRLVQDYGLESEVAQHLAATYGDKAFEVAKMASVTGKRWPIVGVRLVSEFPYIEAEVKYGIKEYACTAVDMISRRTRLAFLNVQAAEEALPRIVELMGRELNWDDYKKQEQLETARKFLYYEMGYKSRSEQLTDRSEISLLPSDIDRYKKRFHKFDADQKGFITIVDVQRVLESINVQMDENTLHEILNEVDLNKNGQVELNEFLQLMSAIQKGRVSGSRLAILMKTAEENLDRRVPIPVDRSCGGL", "assay": "microscale thermophoresis with labeled purchased protein (Abcam ab153790)"}},
  "data": [
    {"smiles": "O=c1ccc2cc(O)c(O)cc2o1", "note": "[Esculetin]", "values": [
      {"measurement": "Kd", "setting": "[1]", "value": "161 ± 63.3", "unit": "nM"},
      {"measurement": "Kd", "setting": "[2]", "value": "127 ± 22.4", "unit": "nM"},
      {"measurement": "Kd", "setting": "[3]", "value": "666 ± 196", "unit": "nM"}
    ]}
  ]
}
